According to US20260297092A1, “PYRAZOLOPYRIMIDINE DERIVATIVES AS INHIBITORS OF NLRP3” (Takeda Pharmaceutical Company Limited, priority 2023, published 2026):

Test system: NLRP3 inflammasome (IL-1β production in THP-1 cells)
Test: IL-1β TR-FRET Assay (percentage of inhibition at 300 nM, 6 μM or 10 μM)
Type: cell-based, human
Conditions: Homo sapiens, THP-1, 300 nM, LPS priming, ATP activation, read-out: IL-1β inhibitory rate at 300 nM (%)
Protocol: The biological activity of the compound of Formula 1 with respect to NLRP3 was determined using the following in vitro method.
IL-1β TR-FRET Assay (reported as percentage of inhibition at 300 nM, 6 μM or 10 μM)
Monocytic THP-1 cells (ATCC: TIB-202) were maintained in accordance with the provider's instructions in RPMI media (Life Technologies, Cat #A10491-01); RPMI was supplemented with 10% heat inactivated fetal bovine serum (Corning, Cat #35-010-CV). The cells were differentiated into macrophages by the addition of 25 ng/mL IFN-γ (PeproTech, Cat #AF-300-02-100UG) for 24 hours at 37° C./5% CO2. Media was exchanged with fresh media with no FBS, and the cells were treated with 50 ng/mL LPS (priming step) (LPS-EK: Invivogen, Cat #tlrl-peklps). The cells were plated at 20,000 cells per well in 384-well flat-bottom cell culture plates (FALCON, Cat #353962) and were incubated for 24 hours at 37° C./5% CO2. Compounds were serially diluted (half log or 5-fold dilutions) with DMSO and were finally diluted with Media with no FBS. The compounds were added to the cells in 384-well plates (added in 1:3) and then the plates were incubated for 30 minutes at 37° C./5% CO2. The NLRP3 inflammasome was activated with the addition of 20 mM ATP (Sigma Cat #A3377-25G) and the cells were incubated for 2 hours at 37° C./5% CO2. At the end of the incubation period, 30 μL supernatant was transferred to another 384-well plate and mixed on a plate shaker for 1 minute. The supernatant was mixed with HTRF Antibody (Human IL1 beta kit, Cisbio, 62HIL1BPEH) in assay plates (Greiner Bio-One, Cat #784075) and the assay plates were incubated in shading box at room temperature for 16-24 hours. HTRF signal was measured by EnVision (Perkinelmer) in accordance with the manufacturer's instructions.
The percentage of inhibition at 300 nM, 6 μM or 10 μM in the IL-1βTR-FRET assay was calculated by the following formula: Percentage of inhibition=[1−(HTRF signaltest−HTRF signalLow)/(HTRF signalHigh−HTRF signalLow)]*100, where HTRF signaltest is the HTRF signal in the well to which test compound is added, HTRF signalLow is the HTRF signal in the well to which 3 μM MCC-950 is added, and the HTRF signalHigh is the HTRF signal in the well to which DMSO is added.

**Q.** Which inhibition at 0.3 µM does the source give for `Cc1cc(C2CC2)cc(C)c1-n1cc2c(=O)[nH]c([C@@H]3CCOC3)nc2n1` [Example 201, 2-(4-cyclopropyl-2,6-dimethylphenyl)-6-(oxolan-3-yl)-2,5-dihydro-4H-pyrazolo [3,4-d]pyrimidin-4-one] here?
**A.** 99%

**Q.** With `Cc1cc(C2CC2)cc(C)c1-n1cc2c(=O)[nH]c(-c3cnn(C)c3)nc2n1` [Example 217, 2-(4-cyclopropyl-2,6-dimethylphenyl)-6-(1-methyl-1H-pyrazol-4-yl)-2,5-dihydro-4H-pyrazolo[3,4-d]pyrimidin-4-one] as the compound, how does the inhibition at 0.3 µM read?
**A.** 108%

**Q.** With `Cc1cc(Br)cc(C)c1-n1cc2c(=O)[nH]c([C@H]3CC3(F)F)nc2n1` [Example 189, 2-(4-bromo-2,6-dimethylphenyl)-6-(2,2-difluorocyclopropyl)-2,5-dihydro-4H-pyrazolo[3,4-d]pyrimidin-4-one] as the compound, how does the inhibition at 0.3 µM read?
**A.** 99%

**Q.** `Cc1ccc(-n2cc3c(=O)[nH]c(O[C@H]4C[C@H](C#N)C4)nc3n2)c(C)c1` [Example 219, 3-{[2-(2,4-dimethylphenyl)-4-oxo-4,5-dihydro-2H-pyrazolo[3,4-d]pyrimidin-6-yl]oxy}cyclobutane-1-carbonitrile] was tested. Which inhibition at 0.3 µM did it give?
**A.** 96%

**Q.** `CCOc1nc2nn(-c3c(C)cc(C4CC4)nc3C)cc2c(=O)[nH]1` [Example 174, 2-(6-cyclopropyl-2,4-dimethylpyridin-3-yl)-6-ethoxy-2,5-dihydro-4H-pyrazolo[3,4-d]pyrimidin-4-one] was tested. Which inhibition at 0.3 µM did it give?
**A.** 108%

**Q.** With `Cc1nc2nn(-c3c(C)cc(Br)cc3C)cc2c(=O)[nH]1` [Example 187, 2-(4-bromo-2,6-dimethylphenyl)-6-methyl-2,5-dihydro-4H-pyrazolo[3,4-d]pyrimidin-4-one] as the compound, how does the inhibition at 0.3 µM read?
**A.** 97%

**Q.** `Cc1cc(C2CC2)cc(C)c1-n1cc2c(=O)[nH]c(C(C)(C)O)nc2n1` [Example 172, 2-(4-cyclopropyl-2,6-dimethylphenyl)-6-(2-hydroxypropan-2-yl)-2,5-dihydro-4H-pyrazolo[3,4-d]pyrimidin-4-one] was tested. Which inhibition at 0.3 µM did it give?
**A.** 61%

**Q.** How did the inhibition at 0.3 µM turn out when `CCOc1nc2nn(-c3c(F)cc(C4(F)CC4)cc3Br)cc2c(=O)[nH]1` [Example 178, 2-[2-bromo-6-fluoro-4-(1-fluorocyclopropyl)phenyl]-6-ethoxy-2,5-dihydro-4H-pyrazolo[3,4-d]pyrimidin-4-one] was run?
**A.** 101%

Same assay, conditions: Homo sapiens, THP-1, 6 μM, LPS priming, ATP activation, read-out: IL-1β inhibitory rate at 6 μM (%)

**Q.** For `Cc1cc(C2CC2)cc(C)c1-n1cc2c(=O)[nH]c(-c3cn4c(n3)COCC4)nc2n1` [Example 264, 2-(4-cyclopropyl-2,6-dimethylphenyl)-6-(5,6-dihydro-8H-imidazo[2,1-c][1,4]oxazin-2-yl)-2,5-dihydro-4H-pyrazolo[3,4-d]pyrimidin-4-one], which inhibition at 6 µM is on record?
**A.** 100%

**Q.** How did the inhibition at 6 µM turn out when `Cc1cc(C2CC2)cc(Cl)c1-n1cc2c(=O)[nH]c(COC(F)F)nc2n1` [Example 294, 2-(2-chloro-4-cyclopropyl-6-methylphenyl)-6-[(difluoromethoxy)methyl]-2,5-dihydro-4H-pyrazolo[3,4-d]pyrimidin-4-one] was run?
**A.** 106%

**Q.** For `COCc1nc2nn(-c3c(C)cc(C4CC4)cc3CC(F)F)cc2c(=O)[nH]1` [Example 323, 2-[4-cyclopropyl-2-(2,2-difluoroethyl)-6-methylphenyl]-6-(methoxymethyl)-2,5-dihydro-4H-pyrazolo[3,4-d]pyrimidin-4-one], which inhibition at 6 µM is on record?
**A.** 103%

**Q.** `O=c1[nH]c(COC(F)F)nc2nn(-c3ccc(Br)cc3C(F)F)cc12` [Example 267, 2-[4-bromo-2-(difluoromethyl)phenyl]-6-[(difluoromethoxy)methyl]-2,5-dihydro-4H-pyrazolo[3,4-d]pyrimidin-4-one] was tested. Which inhibition at 6 µM did it give?
**A.** 101%

**Q.** With `Cc1cc(C2CC2)cc(C)c1-n1cc2c(=O)[nH]c([C@H]3CCCCO3)nc2n1` [Example 233, 2-(4-cyclopropyl-2,6-dimethylphenyl)-6-(oxan-2-yl)-2,5-dihydro-4H-pyrazolo[3,4-d]pyrimidin-4-one] as the compound, how does the inhibition at 6 µM read?
**A.** 93%

**Q.** For `CO[C@H]1C[C@@H](Oc2nc3nn(-c4ccc(C)cc4C)cc3c(=O)[nH]2)C1` [Example 243, 2-(2,4-dimethylphenyl)-6-{[(1s,3s)-3-methoxycyclobutyl]oxy}-2,5-dihydro-4H-pyrazolo[3,4-d]pyrimidin-4-one], which inhibition at 6 µM is on record?
**A.** 100%

**Q.** For `CCOCc1nc2nn(-c3c(F)cc(C4CC4)cc3C(F)F)cc2c(=O)[nH]1` [Example 314, 2-[4-cyclopropyl-2-(difluoromethyl)-6-fluorophenyl]-6-(ethoxymethyl)-2,5-dihydro-4H-pyrazolo[3,4-d]pyrimidin-4-one], which inhibition at 6 µM is on record?
**A.** 105%

**Q.** For `CCOc1nc2nn(-c3c(Br)cc(C4CC4)cc3C(F)F)cc2c(=O)[nH]1` [Example 250, 2-[2-bromo-4-cyclopropyl-6-(difluoromethyl)phenyl]-6-ethoxy-2,5-dihydro-4H-pyrazolo[3,4-d]pyrimidin-4-one], which inhibition at 6 µM is on record?
**A.** 103%

**Q.** With `CCOc1nc2nn(-c3c(C#N)cc(C4CC4)cc3C(F)F)cc2c(=O)[nH]1` [Example 254, 5-cyclopropyl-3-(difluoromethyl)-2-(6-ethoxy-4-oxo-4,5-dihydro-2H-pyrazolo[3,4-d]pyrimidin-2-yl)benzonitrile] as the compound, how does the inhibition at 6 µM read?
**A.** 100%

**Q.** With `O=c1[nH]c(C2COCCO2)nc2nn(-c3c(F)cc(C4CC4)cc3C(F)F)cc12` (racemic) [Example 305, 2-[4-cyclopropyl-2-(difluoromethyl)-6-fluorophenyl]-6-(1,4-dioxan-2-yl)-2,5-dihydro-4H-pyrazolo[3,4-d]pyrimidin-4-one] as the compound, how does the inhibition at 6 µM read?
**A.** 103%

**Q.** Which inhibition at 6 µM does the source give for `Cc1cc(C2CC2)cc(C)c1-n1cc2c(=O)[nH]c(-c3cc4n(n3)CCO4)nc2n1` [Example 270, 2-(4-cyclopropyl-2,6-dimethylphenyl)-6-(2,3-dihydropyrazolo[5,1-b][1,3]oxazol-6-yl)-2,5-dihydro-4H-pyrazolo[3,4-d]pyrimidin-4-one] here?
**A.** 98%

**Q.** How did the inhibition at 6 µM turn out when `Cc1cc(Br)cc(C(F)F)c1-n1cc2c(=O)[nH]c(COC(F)F)nc2n1` [Example 279, 2-[4-bromo-2-(difluoromethyl)-6-methylphenyl]-6-[(difluoromethoxy)methyl]-2,5-dihydro-4H-pyrazolo[3,4-d]pyrimidin-4-one] was run?
**A.** 100%

**Q.** How did the inhibition at 6 µM turn out when `CCc1nc2nn(-c3ccc(C4CC4)c(C(F)F)c3F)cc2c(=O)[nH]1` [Example 281, 2-[4-cyclopropyl-3-(difluoromethyl)-2-fluorophenyl]-6-ethyl-2,5-dihydro-4H-pyrazolo[3,4-d]pyrimidin-4-one] was run?
**A.** 98%

Same assay, conditions: Homo sapiens, THP-1, 10 μM, LPS priming, ATP activation, read-out: IL-1β inhibitory rate at 10 μM (%)

**Q.** How did the inhibition at 10 µM turn out when `Cc1cc(C2CC2)cc(C(F)F)c1-n1cc2c(=O)[nH]c([C@@H]3COCCO3)nc2n1` [Example 326, 2-[4-cyclopropyl-2-(difluoromethyl)-6-methylphenyl]-6-[(2S)-1,4-dioxan-2-yl]-2,5-dihydro-4H-pyrazolo[3,4-d]pyrimidin-4-one or 2-[4-cyclopropyl-2-(difluoromethyl)-6-methylphenyl]-6-[(2R)-1,4-dioxan-2-yl]-2,5-dihydro-4H-pyrazolo[3,4-d]pyrimidin-4-one] was run?
**A.** 111%

**Q.** Which inhibition at 10 µM does the source give for `Cc1cc(C2CC2)cc(C(F)F)c1-n1cc2c(=O)[nH]c([C@H]3COCCO3)nc2n1` [Example 325, 2-[4-cyclopropyl-2-(difluoromethyl)-6-methylphenyl]-6-[(2R)-1,4-dioxan-2-yl]-2,5-dihydro-4H-pyrazolo[3,4-d]pyrimidin-4-one or 2-[4-cyclopropyl-2-(difluoromethyl)-6-methylphenyl]-6-[(2S)-1,4-dioxan-2-yl]-2,5-dihydro-4H-pyrazolo[3,4-d]pyrimidin-4-one] here?
**A.** 100%
